Test results as given in patent US20080280954A1, “Method of Improving Wakefulness” (VANDA PHARMACEUTICALS, INC, priority 2005, published 2008).
Like-named read-outs stand apart in the source and are kept apart here.

Legend:
[1] = system: sleep-wakefulness cycle in rats
Description: In a first set of experiments, the oral (p.o.) and subcutaneous (s.c.) actions of Compound A were evaluated in the sleep-wakefulness cycle in rats. For this purpose the salt forms multifumarate (mfu) or fumarate (fu) were used.
The experiments were carried out in nonanesthetized unrestrained male Wistar rats prepared with chronically implanted electrodes for the recording of the electrocorticogram (ECoG). The animals were caged in a room, maintained at a constant temperature of 22° C. and artificially lighted for 12 hours daily. Before beginning of the experiment, the animals were given a 1 to 3 day period of acclimatization in the recording cages and had complete freedom of movement even when the recording cables were attached. The ECOG recordings were made continuously during 22 to 23-hours period, 15 min after drug administration. Each animal served as its own control. In one experiment, recordings of EcoG were also obtained after administration of distilled water (vehicle used with Compound A) for comparison with no administration, or administration of Compound A.

[2] = system: sleep-wakefulness cycle in rats with lesions of the nucleus basalis of Meynert (NBM) and locus coeruleus (LC)
Description: In a second set of experiment, oral actions of Compound A were evaluated in the sleep-wakefulness cycle in rats with lesions of the nucleus basalis of Meynert (NBM) and locus coeruleus (LC). For this purpose the salt form multifumarate (mfu) was used.
Male rats were used. They were anesthetized with pentobarbital (50 mg/kg i.p.) and positioned in a stereotaxic apparatus with the upper incisor bar set 5 mm (locus coeruleus, LC) or 3.3 mm (Nucleus basalis of Meynert, NBM) below the interaural line. The lesions were carried out with a radio frequency lesion generator at 60° C. in 10 sec. A corresponding group of sham lesioned rats was carried out. The animals were individually kept in single cage during 6 months after the lesions. Five months after lesion, cortical electrodes were implanted. The animals were caged in a room, maintained at a constant temperature of 22° C. and artificially lighted for 12 hours daily. Before beginning of the experiment, the animals were given a 1 day period of acclimatization in the recording cages. These were tall plastic cylinders within the animals had complete freedom of movement even when the recording cables were attached. ECOG recordings were made continuously during 22-hours period/day, 15 min after the installation of the animal or 15 min after drug administration.
Four groups of animals were studied (A1-4), and statistical analysis (T-test, p<0.05) was performed between the different groups.
A1: 5 lesioned animals, which had received 35 days after lesion 3 mg/kg p.o. of
Compound A during 5 days. Implementation of electrodes 5 months later.
Recording of ECOG on the 22d and 23d days after implantation.
A2: Same as A1 but treated with vehicle instead of Compound A.
A3: S Same as A1 but with Sham rats instead of lesioned animals.
A4: Same as A3 but treated with vehicle instead of Compound A.

[3] = 10 mg/kg p.o., 7-11 hours after administration
[4] = 30 mg/kg p.o., first 4 hours of recording
[5] = 3 mg/kg p.o. (mfu) during 5 days, 35 days after lesion, all recording periods

## Cc1nccn1Cc1ccccn1 [Compound A, [2-(2-methylimidazol-1-yl)methyl]pyridine]
[1]; 1 mg/kg s.c., first 2 hours
  REM sleep duration: reduced
[1]; 1 mg/kg s.c., first 4 hours
  wakefulness: enhanced
[1]; 3 mg/kg p.o.
  slow-wave sleep (SWS) sleep onset: significantly delayed
[1]; 3 mg/kg p.o., between 0-4 and 7-11 hours
  active waking: tended to be increased
[1]; 3 mg/kg p.o., first 4 hours
  REM sleep duration: reduced
  classical sleep: reduced
  wakefulness: increase
[1]; 3 mg/kg p.o., last recording interval 18.75-23 hours
  active waking: significantly increased
[1]; 10 mg/kg p.o.
  REM sleep onset: strongly delayed
  SWS onset: tended to also delay
[1]; 10 mg/kg p.o., 0-4 hours after administration
  active waking: significantly increased
[1]; [3]
  REM sleep: tended to be increased
  SWS duration: decreased
  waking time: significantly increased
[1]; 10 mg/kg p.o., during 3 hours
  classical sleep: decreased
[1]; 10 mg/kg p.o., first 6 hours
  waking time: tended to increase
[1]; 10 mg/kg p.o., for several hours
  REM sleep duration: significantly reduced
[1]; 30 mg/kg p.o.
  REM sleep onset: strongly delayed
  SWS onset: strongly delayed
  time the decrease of REM sleep lasted: about 11 hours
  time the increase of wakefulness lasted: about 9 hours
[1]; 30 mg/kg p.o., 4-7 hours after administration
  REM sleep duration: decreased
[1]; [4]
  REM sleep duration: decreased
  SWS duration: decreased
  waking time: increased
[1]; 3, 10 and 30 mg/kg (mfu) p.o., 3 and 10 mg/kg (fu) p.o., 1, 3 and 10 mg/kg (mfu) s.c., dose dependent
  changes in the rat nycthemeral rhythm: significant changes
[1]; 3 and 10 mg/kg s.c.
  effects on sleep-wakefulness cycle compared with oral administration: nearly the same effects as by oral administration
[1]; action quite similar by s.c. and p.o. administration
  effect availability (s.c. versus p.o. action): good
[1]; fu salt form, 3 and 10 mg/kg p.o.
  effects on the sleep wakefulness cycle compared with the mfu form: same effects
[2]; [5]
  lesion-induced decrease of classical sleep: partly prevented
  lesion-induced increase of wakefulness: partly prevented
[2]; 3 mg/kg p.o. (mfu) during 5 days, 35 days after lesion, recording more than 5 months later, all recording periods
  alterations of the sleep-wakefulness cycle due to the lesions: important reduction
[2]; several months after last administration
  nycthemeral cycle abnormalities induced by simultaneous LC+NBM lesions: reduce
